From patent US20050261130A1, “Novel surfactants and formulations” (Monsanto Technology LLC, priority 2000, published 2005)

Experiments:
[1] = Cloud point of aqueous concentrate compositions; assay type: physicochemical; conditions: 12 wt % surfactant
Description: For aqueous solution concentrates, high temperature storage stability is often indicated by a cloud point of about 50° C. or more. Cloud point of a composition is normally determined by heating the composition until the solution becomes cloudy, and then allowing the composition to cool, with agitation, while its temperature is continuously monitored. A temperature reading taken when the solution clears is a measure of cloud point. A cloud point of 50° C. or more is normally considered acceptable for most commercial purposes for a glyphosate SL formulation. Ideally the cloud point should be 60° C. or more, and the composition should withstand temperatures as low as about −10° C. for up to about 7 days without crystal growth, even in the presence of seed crystals of the glyphosate salt.
Cloud points were measured by heating a small amount of the material in a test tube until the solution became hazy or cloudy then removing the test tube from the heat and observing the temperature at which the solution became clear on cooling. The temperature at which the solution became clear is noted as the cloud point.
Cloud point was determined for certain liquid compositions of Examples 66-69 as follows. A sample of the composition in a test tube was heated in a water bath until it became cloudy. The test tube was then removed from the water bath and the sample stirred with a thermometer until it became clear. The temperature at which the sample became clear was recorded as the cloud point of the composition.

[2] = Brookfield viscosity (Model DV-11, Small Sample Adapter); assay type: physicochemical; conditions: 10° C.
Description: (§1) Viscosities were measured using a Haake Model VT500(Haake, Inc., Karlsruhe Germany) equipped with the appropriate MV series cup and bob sensor system at a shear rate of 45 sec^−1. The temperature was varied with the attached water bath. For a few samples for which insufficient sample was available the viscosities were measured with a Brookfield Model DV-11 equipped with a Small Sample Adapter (Brookfield Laboratories, Inc., Stoughton, Mass.).

[3] = Compatibility of surfactant with potassium glyphosate concentrate (no phase separation, 50° C., 1 week); assay type: physicochemical; conditions: 50° C. oven 1 week; for Compatible w/37% a.e. K + glyphosate at 12 wt % loading: 37 wt. % a.e. potassium glyphosate/12 wt. % surfactant; for Compatible w/40% a.e. K + glyphosate at 10% wt loading: 40 wt. % a.e. potassium glyphosate/10 wt. % surfactant; for Compatible w/45% a.e. K + glyphosate at 15% wt loading: 45 wt. % a.e. potassium glyphosate/15 wt. % surfactant
Description: For the 31 wt. % a.e. potassium glyphosate/10 wt. % surfactant compositions: 1.550 g of 40 wt. % a.e. aqueous glyphosate potassium salt solution was weighed into a vial. To the same vial, 0.200 g of surfactant was added. Enough deionized water was then added to the contents to bring the total weight to 2.000g. The mixture was stirred for 2 hours at room temperature and checked to see if a solution had been formed. If a solution was present, the test vial was allowed to stand at room temperature overnight. If a solution was still present, the test vial was placed in a 50° C. oven for 1 week. If no phase separation had occurred in one week, the surfactant being tested was considered “compatible.” All of the surfactants identified in Table 4 were compatible at the 31% a.e. potassium/10 wt. % surfactant loading.
For the 37 wt. % a.e. potassium glyphosate/12 wt. % surfactant compositions: 41.1 g of 45 wt. % a.e. aqueous glyphosate potassium salt was weighed to a container. To the same container was added 6.0 g of surfactant and 2.9 g deionized water for a total weight of 50.0 g. The remainder of the protocol is the same as that described for the 31 wt. % samples. The surfactants identified in Table 4 that were compatible at the 37% a.e. potassium/12 wt. % surfactant loading are indicated in Table 5 below.
For the 40 wt. % a.e. potassium glyphosate/10 wt. % surfactant compositions: 1.79 g of 45 wt. % a.e. aqueous glyphosate potassium salt was weighed into a vial. To the same vial was added 0.2 g of surfactant. The remainder of the protocol is the same as that described for the 31 wt. % samples. The surfactants identified in Table 4 that were compatible at the 40% a.e. potassium/10 wt. % surfactant loading are indicated in Table 5 below.
For the 45 wt. % a.e. potassium glyphosate/15 wt. % surfactant compositions: 1.100 g of solid mono potassium glyphosate was weighed into a vial. To the same vial was added 0.300 g surfactant. Enough deionized water was added to the vial to bring the final weight to 2.000 g. The remainder of the protocol is the same as that described for the 31 wt. % samples. The surfactants identified in Table 4 that were compatible at the 45% a.e. potassium/[…] are indicated in Table 5 below.

[4] = Compatibility of surfactant with diammonium glyphosate concentrate (no phase separation, 50° C., 1 week); assay type: physicochemical; conditions: 50° C. oven 1 week; for Compatible w/31% a.e. diammonium glyphosate at 10 wt % loading: 31 wt. % a.e. diammonium glyphosate/10 wt. % surfactant; for Compatible w/37% a.e. diammonium glyphosate at 12 wt % loading: 37 wt. % a.e. diammonium glyphosate/12 wt. % surfactant
Description: For the 31 wt. % a.e. NH4^+glyphosate/10 wt. % surfactant compositions: • 1.48 g of 41.9 wt % a.e. aqueous glyphosate diammonium (1.7 eq) salt was weighed into a vial. To the same vial was added 0.2 g of surfactant and 0.32 g deionized water. The remainder of the protocol is the same as that described for the 31 wt % potassium glyphosate samples. The surfactants identified in Table 4 that were compatible at the 31% a.e. ammonium/10 wt. % surfactant loading are indicated in Table 5 below.
For the 37 wt. % a.e. NH4^+glyphosate/12 wt. % surfactant compositions: • 1.76 g of 41.9 wt % a.e. aqueous glyphosate diammonium (1.7 eq) salt was weighed into a vial. To the same vial was added […]. The remainder of the protocol is the same as that described for the 31 wt % potassium glyphosate samples. The surfactants identified in Table 4 that were compatible at the 37% a.e. ammonium/12 wt. % surfactant loading are indicated in Table 5 below.

[5] = Haake viscosity (Haake VT500, shear rate 45 sec^−1); assay type: physicochemical; conditions: 12 wt % surfactant
Description: as §1

[6] = cited from earlier work
[7] = Specific gravity (Mettler DA-300 Density/Specific Gravity Meter); assay type: physicochemical; conditions: 20/15.6° C.; 30% a.e. by weight glyphosate monobasic salt solutions
Description: Specific gravities are measured using a Mettler DA-300 Density/Specific Gravity Meter.

[8] = Density of formulations (Mettler DA-300 Density Meter); assay type: physicochemical; conditions: 20° C.; 50.0% glyphosate acid (61% potassium glyphosate) solution of Example A
Description: The density was then determined using a Mettler DA-300 Density Meter and the concentrations in grams per liter was calculated.

CCCCCCCCNCC(O)C(O)C(O)C(O)CO (stereo not drawn) [AA]
Cloud Point Data 37% a.e. K + glyphosate at 12 wt % loading [1]: >90 °C
Viscosity Data 37% a.e. K + glyphosate at 12 wt % loading, Brookfield Viscosity ([2]; Spindle 31, 12 rpm): 12 rpm, 52.6 cPs
Viscosity Data 37% a.e. K + glyphosate at 12 wt % loading, Brookfield Viscosity ([2]; Spindle 31, 60 rpm): 60 rpm, 60.1 cPs
Compatible w/37% a.e. K + glyphosate at 12 wt % loading [3]: Yes
Compatible w/40% a.e. K + glyphosate at 10% wt loading [3]: Yes
Compatible w/45% a.e. K + glyphosate at 15% wt loading [3]: Yes
Compatible w/31% a.e. diammonium glyphosate at 10 wt % loading [4]: Yes
Compatible w/37% a.e. diammonium glyphosate at 12 wt % loading [4]: Yes

NCCOCCOCCN [DD]
Cloud Point Data 37% a.e. K + glyphosate at 12 wt % loading [1]: >90 °C
Viscosity Data 37% a.e. K + glyphosate at 12 wt % loading, Haake Vis. ([5]; 0° C.): 231.17 cPs
Viscosity Data 37% a.e. K + glyphosate at 12 wt % loading, Haake Vis. ([5]; 5° C.): 150.26 cPs
Viscosity Data 37% a.e. K + glyphosate at 12 wt % loading, Haake Vis. ([5]; 10° C.): 138.80 cPs
Viscosity Data 37% a.e. K + glyphosate at 12 wt % loading, Haake Vis. ([5]; 15° C.): 82.51 cPs
Viscosity Data 37% a.e. K + glyphosate at 12 wt % loading, Haake Vis. ([5]; 25° C.): 49.37 cPs
Viscosity Data 37% a.e. K + glyphosate at 12 wt % loading, Haake Vis. ([5]; −5° C.): 397.16 cPs
Compatible w/37% a.e. K + glyphosate at 12 wt % loading [3]: Yes

CCCCN(CCCC)CCCN [F]
Cloud Point Data 37% a.e. K + glyphosate at 12 wt % loading [1]: >90 °C
Viscosity Data 37% a.e. K + glyphosate at 12 wt % loading, Haake Vis. ([5]; 0° C.): 273.01 cPs
Viscosity Data 37% a.e. K + glyphosate at 12 wt % loading, Haake Vis. ([5]; 5° C.): 173.57 cPs
Viscosity Data 37% a.e. K + glyphosate at 12 wt % loading, Haake Vis. ([5]; 10° C.): 142.38 cPs
Viscosity Data 37% a.e. K + glyphosate at 12 wt % loading, Haake Vis. ([5]; 15° C.): 110.89 cPs
Viscosity Data 37% a.e. K + glyphosate at 12 wt % loading, Haake Vis. ([5]; 25° C.): 57.29 cPs
Viscosity Data 37% a.e. K + glyphosate at 12 wt % loading, Haake Vis. ([5]; −5° C.): 400.48 cPs
Compatible w/37% a.e. K + glyphosate at 12 wt % loading [3]: Yes
Compatible w/40% a.e. K + glyphosate at 10% wt loading [3]: Yes
Compatible w/45% a.e. K + glyphosate at 15% wt loading [3]: Yes

CC(C)CC(C)CC(C)COCCCNCCCN (stereo not drawn) [R]
Cloud Point Data 37% a.e. K + glyphosate at 12 wt % loading [1]: >90 °C
Viscosity Data 37% a.e. K + glyphosate at 12 wt % loading, Haake Vis. ([5]; 0° C.): 2517 cPs
Viscosity Data 37% a.e. K + glyphosate at 12 wt % loading, Haake Vis. ([5]; 5° C.): 2269 cPs
Viscosity Data 37% a.e. K + glyphosate at 12 wt % loading, Haake Vis. ([5]; 10° C.): 1963 cPs
Viscosity Data 37% a.e. K + glyphosate at 12 wt % loading, Haake Vis. ([5]; 15° C.): 1420 cPs
Viscosity Data 37% a.e. K + glyphosate at 12 wt % loading, Haake Vis. ([5]; 25° C.): 1077 cPs
Viscosity Data 37% a.e. K + glyphosate at 12 wt % loading, Haake Vis. ([5]; −5° C.): −5° C., too thick
Compatible w/37% a.e. K + glyphosate at 12 wt % loading [3]: Yes

CCCCCCCCCCCCCCCCCCN(C)CC(O)C(O)C(O)C(O)CO (stereo not drawn) [SS]
Viscosity Data 37% a.e. K + glyphosate at 12 wt % loading, Brookfield Vis. ([2]; Spindle 31, 12 rpm): 12 rpm, 86.5 cp
Viscosity Data 37% a.e. K + glyphosate at 12 wt % loading, Brookfield Vis. ([2]; Spindle 31, 60 rpm): 60 rpm, 88.2 cp
Compatible w/37% a.e. K + glyphosate at 12 wt % loading [3]: Yes
Compatible w/31% a.e. diammonium glyphosate at 10 wt % loading [4]: No
Compatible w/37% a.e. diammonium glyphosate at 12 wt % loading [4]: No

CCCCCCN(CCCN(CCCCCC)CC(O)C(O)C(O)C(O)CO)CC(O)C(O)C(O)C(O)CO (stereo not drawn) [Surfactant AAA, 1,6 hexylaminoglucitol propane]
Viscosity Data 37% a.e. K + glyphosate at 12 wt % loading, Brookfield Vis. ([2]; Spindle 31, 12 rpm): 12 rpm, 76.5 cp
Viscosity Data 37% a.e. K + glyphosate at 12 wt % loading, Brookfield Vis. ([2]; Spindle 31, 60 rpm): 60 rpm, 78.2 cp
Compatible w/37% a.e. K + glyphosate at 12 wt % loading [3]: Yes
Compatible w/45% a.e. K + glyphosate at 15% wt loading [3]: Yes
Compatible w/31% a.e. diammonium glyphosate at 10 wt % loading [4]: Yes
Compatible w/37% a.e. diammonium glyphosate at 12 wt % loading [4]: Yes

CCCCCCCCN(C)CC(O)C(O)C(O)C(O)CO (stereo not drawn) [UU]
Viscosity Data 37% a.e. K + glyphosate at 12 wt % loading, Brookfield Vis. ([2]; Spindle 31, 12 rpm): 12 rpm, 114 cp
Viscosity Data 37% a.e. K + glyphosate at 12 wt % loading, Brookfield Vis. ([2]; Spindle 31, 60 rpm): 60 rpm, 113 cp
Compatible w/37% a.e. K + glyphosate at 12 wt % loading [3]: Yes
Compatible w/31% a.e. diammonium glyphosate at 10 wt % loading [4]: No
Compatible w/37% a.e. diammonium glyphosate at 12 wt % loading [4]: No

O=C(O)CNCP(=O)(O)O [glyphosate, N-phosphonomethylglycine]
Solubility in water ([6]; 25° C.): 1.16 % by weight

CC(C)N.O=C(O)CNCP(=O)(O)O [isopropylammonium (IPA)]
Specific Gravity [7]: 1.1554

CN [methylammonium]
Specific Gravity [7]: 1.1667

NCCO.O=C(O)CNCP(=O)(O)O [monoethanolammonium (MEA)]
Specific Gravity [7]: 1.2357

O=C(O)CNCP(=O)([O-])O.[K+] [potassium, glyphosate potassium salt]
Specific Gravity [7]: 1.2539
Density of the resulting solution [8]: approximately 1.4661 grams/milliliter
Solubility in pure water ([6]; 20° C., as salt): about 54 % by weight
Solubility in pure water, glyphosate acid equivalent ([6]; 20° C.): about 44 % glyphosate acid equivalent (a.e.) by weight

C[S+](C)C.O=C(O)CNCP(=O)([O-])O [trimethylsulfonium (TMS)]
Specific Gravity [7]: 1.1904

ammonium
Specific Gravity [7]: 1.1814
